Measured values as given in ChEMBL document CHEMBL1201862, “PubChem BioAssay data set” (2004).
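Compound exposure: 48 hours, 5 concentrations, 96-well plates. Here, GI50 denotes the concentration required for 50% inhibition of growth.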 Calls of active or inactive are those of the source. No stated cut-off is given here; in the data, active = GI50 up to about 1.1 µM and inactive = higher.

Key:
Experiment in all cases: DTP human tumour cell line panel, 48 h
RXF 393 = test system: RXF 393
Malme-3M = test system: Malme-3M
NCI-H522 = test system: NCI-H522
HCT-15 = test system: HCT-15
MOLT-4 = test system: MOLT-4
UO-31 = test system: UO-31
SK-MEL-28 = test system: SK-MEL-28
ACHN = test system: ACHN
IGROV-1 = test system: IGROV-1
A498 = test system: A498
NCI-H226 = test system: NCI-H226
786-0 = test system: 786-0
UACC-62 = test system: UACC-62
NCI-H23 = test system: NCI-H23
MCF7 = test system: MCF7
SN12C = test system: SN12C
SNB-19 = test system: SNB-19
MDA-N = test system: MDA-N
MDA-MB-435 = test system: MDA-MB-435
SF-539 = test system: SF-539

| Compound | GI50 (RXF 393) | GI50 (Malme-3M) | GI50 (NCI-H522) | GI50 (HCT-15) [µM] | GI50 (MOLT-4) | GI50 (UO-31) | GI50 (SK-MEL-28) | GI50 (ACHN) | GI50 (IGROV-1) | GI50 (A498) | GI50 (NCI-H226) | GI50 (786-0) | GI50 (UACC-62) | GI50 (NCI-H23) | GI50 (MCF7) | GI50 (SN12C) | GI50 (SNB-19) | GI50 (MDA-N) | GI50 (MDA-MB-435) | GI50 (SF-539) |
| --- | --- | --- | --- | --- | --- | --- | --- | --- | --- | --- | --- | --- | --- | --- | --- | --- | --- | --- | --- | --- |
| Nc1[nH]nc2ccccc12 | > 100 µM (inactive) | > 100 µM (inactive) | > 100 µM (inactive) | 54.7 | > 100 µM (inactive) | 83.4 µM (inactive) | > 100 µM (inactive) | > 100 µM (inactive) | > 100 µM (inactive) | > 100 µM (inactive) | > 100 µM (inactive) | > 100 µM (inactive) | 73.1 µM (inactive) | > 100 µM (inactive) | > 100 µM (inactive) | > 100 µM (inactive) | > 100 µM (inactive) | > 100 µM (inactive) | > 100 µM (inactive) | > 100 µM (inactive) |
| CSC(=S)Nc1cccc(C)n1 | > 100 µM (inactive) | > 100 µM (inactive) | > 100 µM (inactive) | > 100 | > 100 µM (inactive) | > 100 µM (inactive) | > 100 µM (inactive) | > 100 µM (inactive) | > 100 µM (inactive) | > 100 µM (inactive) | > 100 µM (inactive) | > 100 µM (inactive) | > 100 µM (inactive) | > 100 µM (inactive) | > 100 µM (inactive) | > 100 µM (inactive) | > 100 µM (inactive) | > 100 µM (inactive) | > 100 µM (inactive) | > 100 µM (inactive) |
| CNC1Cc2c[nH]c3cccc(c23)C12C=C(C)C(=O)O2 (stereo not given) | > 100 µM (inactive) | > 100 µM (inactive) | > 100 µM (inactive) | > 100 | > 100 µM (inactive) | > 100 µM (inactive) | > 100 µM (inactive) | > 100 µM (inactive) | > 100 µM (inactive) | > 100 µM (inactive) | > 100 µM (inactive) | > 100 µM (inactive) | > 100 µM (inactive) | > 100 µM (inactive) | > 100 µM (inactive) | > 100 µM (inactive) | > 100 µM (inactive) | > 100 µM (inactive) | > 100 µM (inactive) | > 100 µM (inactive) |
| C[N+]12C=CC=C1C(N1CCCC1)c1scc(-c3ccc(Br)cc3)c12 (stereo not given) | 10.2 µM (inactive) | 9.4 µM (inactive) | 1.64 µM (inactive) | > 90.8 | 15.8 µM (inactive) | > 100 µM (inactive) | 19 µM (inactive) | > 88.9 µM (inactive) | 4.58 µM (inactive) | 47.2 µM (inactive) | 3.15 µM (inactive) | 16.7 µM (inactive) | 19.2 µM (inactive) | 3.49 µM (inactive) | 22.9 µM (inactive) | 3.02 µM (inactive) | 4.22 µM (inactive) | 27 µM (inactive) | 24 µM (inactive) | 4 µM (inactive) |
| O=C1c2cccnc2S(=O)(=O)N1c1ccc(Oc2ccccc2)cc1 | 69.7 µM (inactive) | > 100 µM (inactive) | > 100 µM (inactive) | > 100 | 92 µM (inactive) | > 100 µM (inactive) | > 100 µM (inactive) | > 100 µM (inactive) | > 100 µM (inactive) | > 100 µM (inactive) | > 100 µM (inactive) | > 100 µM (inactive) | > 100 µM (inactive) | > 100 µM (inactive) | > 100 µM (inactive) | > 100 µM (inactive) | > 100 µM (inactive) | > 100 µM (inactive) | > 100 µM (inactive) | > 100 µM (inactive) |
| CN(C)C(=S)/N=c1\ssc(=S)n1Cc1ccccc1 | 0.172 µM (active) | 0.243 µM (active) | 0.063 µM (active) | 0.237 | 0.569 µM (active) | 0.667 µM (active) | 0.661 µM (active) | 0.807 µM (active) | 0.632 µM (active) | 0.51 µM (active) | 2.61 µM (inactive) | 0.361 µM (active) | 0.312 µM (active) | 0.465 µM (active) | 0.82 µM (active) | 0.867 µM (active) | 1.08 µM (active) | 0.0348 µM (active) | 0.0337 µM (active) | 0.309 µM (active) |
| N#Cc1c(-c2ccccc2)cc(Nc2ccc(F)cc2)n2c1nc1ccccc12 | 2.66 µM (inactive) | 3.66 µM (inactive) | 1.95 µM (inactive) | 3.26 | 7.03 µM (inactive) | 1.73 µM (inactive) | 8.32 µM (inactive) | 2.7 µM (inactive) | 4.12 µM (inactive) | 2.74 µM (inactive) | 2.81 µM (inactive) | 2.78 µM (inactive) | 1.84 µM (inactive) | 3.18 µM (inactive) | 2.18 µM (inactive) | 2.02 µM (inactive) | 3.14 µM (inactive) | 2.28 µM (inactive) | 3.11 µM (inactive) | 3.26 µM (inactive) |
| CN/C(=N\N=C1/C(=O)Nc2ccccc21)SCC(=O)c1ccc(Br)cc1 | 5.04 µM (inactive) | 13.5 µM (inactive) | 15.5 µM (inactive) | 17.2 | 2.86 µM (inactive) | 1.04 µM (active) | 15 µM (inactive) | 15.5 µM (inactive) | 31.1 µM (inactive) | 17.4 µM (inactive) | 25.4 µM (inactive) | 5.61 µM (inactive) | 50.1 µM (inactive) | 15.6 µM (inactive) | 3.48 µM (inactive) | 12.5 µM (inactive) | 32.4 µM (inactive) | 21.3 µM (inactive) | 9.57 µM (inactive) | 6.38 µM (inactive) |
| CC1(C)OC1COc1c2occc2cc2ccc(=O)oc12 (stereo not given) | > 100 µM (inactive) | > 100 µM (inactive) | > 100 µM (inactive) | > 100 | 79.3 µM (inactive) | 72.4 µM (inactive) | > 100 µM (inactive) | > 100 µM (inactive) | > 100 µM (inactive) | > 100 µM (inactive) | > 100 µM (inactive) | > 100 µM (inactive) | 33.1 µM (inactive) | > 100 µM (inactive) | > 100 µM (inactive) | > 100 µM (inactive) | > 100 µM (inactive) | > 100 µM (inactive) | > 100 µM (inactive) | > 100 µM (inactive) |
| COc1ccc(-c2c3c(cc4cc5c(cc24)OCO5)C(=O)OC3)cc1OC | 2.9 µM (inactive) | 0.51 µM (active) | 0.392 µM (active) | 0.635 | 3.62 µM (inactive) | 3.15 µM (inactive) | 1.37 µM (inactive) | 1.37 µM (inactive) | 0.336 µM (active) | 20.4 µM (inactive) | 0.34 µM (active) | 2.12 µM (inactive) | 0.507 µM (active) | 6.98 µM (inactive) | 4.13 µM (inactive) | 0.488 µM (active) | 16.1 µM (inactive) | 2.01 µM (inactive) | 2.43 µM (inactive) | 3.5 µM (inactive) |
| COc1ccc2nc3ccccc3c(NCCCCCCN(CCCl)CCCl)c2c1 | 0.187 µM (active) | 0.537 µM (active) | 0.0338 µM (active) | 0.0577 | 0.0124 µM (active) | 0.123 µM (active) | 1.06 µM (active) | 0.0184 µM (active) | 0.148 µM (active) | 0.405 µM (active) | 0.25 µM (active) | 0.0161 µM (active) | 0.0628 µM (active) | 0.15 µM (active) | 0.01 µM (active) | 0.0348 µM (active) | 0.328 µM (active) | 0.057 µM (active) | 0.0482 µM (active) | 0.215 µM (active) |
| CC(=O)OCCOc1cc2c([nH]c3ccccc32)c(C)c2cccc1-2 | 1.95 µM (inactive) | 2.11 µM (inactive) | 1.84 µM (inactive) | 2.94 | 3.33 µM (inactive) | 1.75 µM (inactive) | 2.58 µM (inactive) | 1.75 µM (inactive) | 1.77 µM (inactive) | 8.93 µM (inactive) | 10.3 µM (inactive) | 2.84 µM (inactive) | 2.39 µM (inactive) | 1.94 µM (inactive) | 2.94 µM (inactive) | 3.01 µM (inactive) | 3.3 µM (inactive) | 3.16 µM (inactive) | 2.29 µM (inactive) | 1.91 µM (inactive) |
| CC(C)Cc1cc2c(cc1O)CCC1C2CC[C@@]2(C)C1CC[C@@H]2O (stereo not given in full) | 4.35 µM (inactive) | 17.7 µM (inactive) | 6.25 µM (inactive) | 7.21 | 3.5 µM (inactive) | 4.05 µM (inactive) | 10.6 µM (inactive) | 6.95 µM (inactive) | 15.1 µM (inactive) | 18.3 µM (inactive) | 4.79 µM (inactive) | 8.13 µM (inactive) | 7.71 µM (inactive) | 8.39 µM (inactive) | 8.43 µM (inactive) | 7.74 µM (inactive) | 7.46 µM (inactive) | 7.05 µM (inactive) | 11.6 µM (inactive) | 19.5 µM (inactive) |
